A short description of experiment [1]: cells. Format: functional, cell-based.
A short description of experiment [2]: cells. The format is functional, cell-based. The source holds these as a separate data set.
Experiment [3] is described as follows: MC4R antagonists, dose response, counter-screen for LGR2 antagonist project, cell-based, plate reader, cherry pick (AID 743444).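 Also: transfected HEK 293 cells stimulated with alpha-MSH peptide; potency of inhibitors of the alpha-MSH evoked signal.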 The format is functional. (The purpose of a counterscreen is to sort out artefacts and off-target activity.)
Experiment [4] can be described thus: HepG2 cell cytotoxicity, dose response, cytotoxicity control, plate reader, cherry-pick, antagonist series (AID 743416). The format is functional, cell-based.
For experiment [5], the target named is T1, Oxysterols receptor LXR-beta (Homo sapiens, UniProt P55055).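 Also: agonist activity at LXR measured by a cell-based luminescence readout across a dose range, run as a counterscreen for daf-12 agonists; HEK293 cells with Gal4-LXR fusion and GAL4-driven luciferase reporter; potency for activation of Gal4-LXR reporter so compounds are agonists.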
T1 sequence (P55055 whole entry): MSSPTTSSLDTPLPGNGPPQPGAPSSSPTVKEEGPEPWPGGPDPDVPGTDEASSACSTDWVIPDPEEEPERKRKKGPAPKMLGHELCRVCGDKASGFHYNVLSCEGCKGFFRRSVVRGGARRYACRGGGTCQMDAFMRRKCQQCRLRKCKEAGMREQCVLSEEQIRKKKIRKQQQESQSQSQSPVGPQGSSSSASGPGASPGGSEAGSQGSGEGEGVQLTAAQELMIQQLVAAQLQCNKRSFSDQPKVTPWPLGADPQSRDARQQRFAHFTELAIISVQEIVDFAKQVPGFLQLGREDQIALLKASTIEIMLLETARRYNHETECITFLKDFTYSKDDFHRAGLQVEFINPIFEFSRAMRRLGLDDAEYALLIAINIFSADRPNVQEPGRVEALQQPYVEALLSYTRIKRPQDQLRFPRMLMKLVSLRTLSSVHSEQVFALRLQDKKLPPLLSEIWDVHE
The format is functional, cell-based.

Experiment [6] in a line: LGR2 antagonists, dose response, cell-based, HEK293, CRE-luciferase reporter, cherry pick, set 2 (AID 743343).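 Also: transfected cells were stimulated with diluted bursicon conditioned medium after compound addition.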 Format: functional. Background: A reporter such as luciferase makes a cellular process visible.
A short description of experiment [7]: ADAM10 inhibitors, peptide cleavage, dose response, biochemical, QFRET (AID 743254).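 Also: ADAM10 enzyme with the DM2 quenched FRET peptide as substrate; EDANS fluorescence gain as the protease cuts the substrate; inhibitor potency against ADAM10 proteolytic activity.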
Experiment [8] deals with Disintegrin and metalloproteinase domain-containing protein 17 (Homo sapiens, UniProt P78536). The experiment is described as follows: ADAM17 protease inhibitors, dose response, counter-screen for ADAM10 exosite inhibitor project, biochemical, quenched FRET substrate (AID 743253).
Sequence of Disintegrin and metalloproteinase domain-containing protein 17 (P78536 whole entry, the tested form may be a part): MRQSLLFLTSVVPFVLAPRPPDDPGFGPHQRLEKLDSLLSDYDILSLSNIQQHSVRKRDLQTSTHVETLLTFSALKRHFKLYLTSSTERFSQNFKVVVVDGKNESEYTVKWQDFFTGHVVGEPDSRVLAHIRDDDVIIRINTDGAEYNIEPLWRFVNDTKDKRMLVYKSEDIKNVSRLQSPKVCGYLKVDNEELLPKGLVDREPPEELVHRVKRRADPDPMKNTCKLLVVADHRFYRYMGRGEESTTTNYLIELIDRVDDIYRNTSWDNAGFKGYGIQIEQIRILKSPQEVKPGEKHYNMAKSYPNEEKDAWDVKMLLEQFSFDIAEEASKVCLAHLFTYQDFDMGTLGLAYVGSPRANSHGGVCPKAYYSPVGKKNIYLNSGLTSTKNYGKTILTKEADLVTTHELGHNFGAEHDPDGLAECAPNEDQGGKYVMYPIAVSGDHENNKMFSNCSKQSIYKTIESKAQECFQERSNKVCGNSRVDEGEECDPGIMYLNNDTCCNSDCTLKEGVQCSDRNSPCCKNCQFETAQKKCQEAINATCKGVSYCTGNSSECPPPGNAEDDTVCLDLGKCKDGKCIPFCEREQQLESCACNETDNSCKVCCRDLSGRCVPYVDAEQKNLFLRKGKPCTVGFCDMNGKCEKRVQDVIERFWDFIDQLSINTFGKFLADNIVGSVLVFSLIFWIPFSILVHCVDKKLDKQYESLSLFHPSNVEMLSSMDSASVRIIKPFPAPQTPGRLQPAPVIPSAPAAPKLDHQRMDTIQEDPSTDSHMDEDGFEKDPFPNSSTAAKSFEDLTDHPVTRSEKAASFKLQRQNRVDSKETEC
A short description of experiment [9]: A549 cell cytotoxicity, dose response, cytotoxicity control, plate reader, cherry-pick, antagonist series (AID 743412). The format is functional, cell-based.
For another experiment, the system named is HeLa. Briefly: HeLa cell cytotoxicity, dose response, cytotoxicity control, ATP luminescence, cherry-pick samples (AID 687004). The format is functional, cell-based. Particulars: Homo sapiens.
The nature of experiment [10]: inhibitors of firefly luciferase expression or activity, dose response, H4 neuroglioma cells, luminescence (AID 1990). Format: functional, cell-based.
The next experiment deals with INS1. The experiment is described as follows: beta cell apoptosis inhibitors, cytokine rescue, dose response, luminescence, retest (AID 449756).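 Also: cell death triggered by IL-1 beta plus TNF-alpha plus IFN-gamma mixture; protective hits raise ATP signal compared with cytokine alone wells.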 The format is functional, cell-based. Particulars: Rattus norvegicus.
Experiment [11] has as its target T2, Replicative DNA helicase DnaB (Mycobacterium tuberculosis, UniProt P9WMR3).
T2 sequence (P9WMR3 whole entry): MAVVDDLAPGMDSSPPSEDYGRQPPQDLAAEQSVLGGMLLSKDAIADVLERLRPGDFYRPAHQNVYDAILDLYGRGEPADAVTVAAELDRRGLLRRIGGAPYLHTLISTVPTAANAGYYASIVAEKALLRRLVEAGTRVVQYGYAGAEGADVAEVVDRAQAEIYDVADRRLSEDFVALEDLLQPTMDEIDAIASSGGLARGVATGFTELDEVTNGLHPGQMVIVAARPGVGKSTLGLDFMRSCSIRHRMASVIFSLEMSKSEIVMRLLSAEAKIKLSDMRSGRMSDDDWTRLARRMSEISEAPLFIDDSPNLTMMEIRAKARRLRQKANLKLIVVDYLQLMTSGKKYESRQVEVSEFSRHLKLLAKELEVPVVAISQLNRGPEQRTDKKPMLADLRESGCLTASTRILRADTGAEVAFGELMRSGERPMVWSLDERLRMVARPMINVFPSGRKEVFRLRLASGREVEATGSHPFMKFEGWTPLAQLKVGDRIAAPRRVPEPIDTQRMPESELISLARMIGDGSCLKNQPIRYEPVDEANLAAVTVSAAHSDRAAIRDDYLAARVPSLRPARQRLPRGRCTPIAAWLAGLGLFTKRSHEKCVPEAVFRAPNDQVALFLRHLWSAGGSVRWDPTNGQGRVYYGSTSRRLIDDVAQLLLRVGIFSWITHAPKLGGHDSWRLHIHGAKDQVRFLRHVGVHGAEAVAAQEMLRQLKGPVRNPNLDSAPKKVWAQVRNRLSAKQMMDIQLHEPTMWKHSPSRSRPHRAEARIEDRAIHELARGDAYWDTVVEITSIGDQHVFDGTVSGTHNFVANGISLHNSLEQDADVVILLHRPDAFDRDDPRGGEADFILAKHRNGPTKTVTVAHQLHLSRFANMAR
Briefly: DnaB intein splicing inhibitors, dose response, biochemical, cell-free fluorescence (AID 449749). The format is functional.

Experiment [12] in a line: cytotoxicity toward DRD oncogenic fibroblasts, dose response, cell-based, non-viral oncogenic, luminescence (AID 1934). Format: functional. Particulars: Homo sapiens.
The nature of experiment [13]: Luminescence Cell-Based Dose Response HTS to Identify Inhibitors of 5'UTR Stem-Loop Driven Prion Protein mRNA Translation in H4 Neuroglioblastoma Cells. [Related pubchem assays: 1827 (Project Summary), 1813 (Primary HTS)]. The format is functional.
In experiment [14] the test system is BJ. The experiment is described as follows: cytotoxicity toward BJ-TERT fibroblasts, dose response, cell-based, RAS-independent, luminescence (AID 1933). The format is functional. The conditions noted are these: Homo sapiens.
The subject of the next experiment is Streptococcus. Briefly: Group A Streptococcus viability loss, dose response, counter-screen for streptokinase expression inhibitor project, luminescence, BacTiterGlo (AID 1915).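 Also: potency for reduction of bacterial viability or growth.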 Format: functional, organism-based.
A short description of experiment [15]: inhibitors of SNCA 5'UTR-driven reporter translation, confirmation, H4 neuroglioma cells, luminescence (AID 1988). Format: functional, cell-based.
For experiment [16], the system named is BJ. The experiment is described as follows: cells. The conditions noted are these: Homo sapiens. Format: functional, cell-based.
In experiment [17] the test system is Streptococcus sp. 'group A'. The experiment is described as follows: growth inhibition of control SK(-) GAS strain, dose response, counter-screen for streptokinase expression inhibitor project, luminescence, kanamycin, BacTiterGlo, confirmation (AID 1900). Format: functional, organism-based.
The target in experiment [18] is Fructose-bisphosphate aldolase (Mycobacterium tuberculosis, UniProt P9WQA3). The experiment is described as follows: Fluorescence-based biochemical high throughput dose response assay for inhibitors of the fructose-bisphosphate aldolase (FBA) of M. tuberculosis. The format is functional.
Sequence of Fructose-bisphosphate aldolase (P9WQA3 whole entry): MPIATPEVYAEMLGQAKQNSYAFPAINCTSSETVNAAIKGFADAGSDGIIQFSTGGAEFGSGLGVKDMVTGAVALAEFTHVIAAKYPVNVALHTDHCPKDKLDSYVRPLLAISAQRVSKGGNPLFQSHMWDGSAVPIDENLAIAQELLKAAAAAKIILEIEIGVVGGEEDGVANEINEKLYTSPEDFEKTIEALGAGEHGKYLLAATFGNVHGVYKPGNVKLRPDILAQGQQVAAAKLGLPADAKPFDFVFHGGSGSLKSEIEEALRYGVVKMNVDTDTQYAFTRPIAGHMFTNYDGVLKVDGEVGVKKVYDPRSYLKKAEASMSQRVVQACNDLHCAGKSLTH
The next experiment addresses T3, Streptokinase A (Streptococcus pyogenes serotype M1, UniProt P10520).
T3 sequence (P10520 whole entry): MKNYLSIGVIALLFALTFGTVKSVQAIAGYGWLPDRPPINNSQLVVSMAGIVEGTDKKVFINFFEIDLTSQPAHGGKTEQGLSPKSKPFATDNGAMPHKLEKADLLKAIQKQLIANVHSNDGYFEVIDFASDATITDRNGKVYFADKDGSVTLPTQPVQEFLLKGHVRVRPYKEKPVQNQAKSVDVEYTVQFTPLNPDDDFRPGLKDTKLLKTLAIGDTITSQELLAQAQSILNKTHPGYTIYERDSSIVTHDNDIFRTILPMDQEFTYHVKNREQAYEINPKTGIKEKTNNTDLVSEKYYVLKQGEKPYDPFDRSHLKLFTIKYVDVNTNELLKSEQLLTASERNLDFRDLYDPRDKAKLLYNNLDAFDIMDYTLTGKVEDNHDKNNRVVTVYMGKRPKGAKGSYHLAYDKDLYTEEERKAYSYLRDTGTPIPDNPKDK
The experiment is described as follows: S. pyogenes streptokinase expression inhibitors, potency, dose response, plasminogen activation absorbance, OD405 (AID 1914).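 Also: secreted streptokinase activity via plasminogen activation per viability signal from cell pellet.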 Format: functional, Streptococcus pyogenes M1 GAS.

The subject of experiment [19] is BJ. The experiment is described as follows: cytotoxicity toward BJ-TERT-LT-ST fibroblasts, dose response, cell-based, RAS-independent, luminescence (AID 1935).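 Also: BJ fibroblasts immortalized with TERT plus LT and ST oncogenes.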 Format: functional. Particulars: Homo sapiens.
The next experiment concerns the target T4, Protein RecA (Mycobacterium tuberculosis, UniProt P9WHJ3).
T4 sequence (P9WHJ3 whole entry): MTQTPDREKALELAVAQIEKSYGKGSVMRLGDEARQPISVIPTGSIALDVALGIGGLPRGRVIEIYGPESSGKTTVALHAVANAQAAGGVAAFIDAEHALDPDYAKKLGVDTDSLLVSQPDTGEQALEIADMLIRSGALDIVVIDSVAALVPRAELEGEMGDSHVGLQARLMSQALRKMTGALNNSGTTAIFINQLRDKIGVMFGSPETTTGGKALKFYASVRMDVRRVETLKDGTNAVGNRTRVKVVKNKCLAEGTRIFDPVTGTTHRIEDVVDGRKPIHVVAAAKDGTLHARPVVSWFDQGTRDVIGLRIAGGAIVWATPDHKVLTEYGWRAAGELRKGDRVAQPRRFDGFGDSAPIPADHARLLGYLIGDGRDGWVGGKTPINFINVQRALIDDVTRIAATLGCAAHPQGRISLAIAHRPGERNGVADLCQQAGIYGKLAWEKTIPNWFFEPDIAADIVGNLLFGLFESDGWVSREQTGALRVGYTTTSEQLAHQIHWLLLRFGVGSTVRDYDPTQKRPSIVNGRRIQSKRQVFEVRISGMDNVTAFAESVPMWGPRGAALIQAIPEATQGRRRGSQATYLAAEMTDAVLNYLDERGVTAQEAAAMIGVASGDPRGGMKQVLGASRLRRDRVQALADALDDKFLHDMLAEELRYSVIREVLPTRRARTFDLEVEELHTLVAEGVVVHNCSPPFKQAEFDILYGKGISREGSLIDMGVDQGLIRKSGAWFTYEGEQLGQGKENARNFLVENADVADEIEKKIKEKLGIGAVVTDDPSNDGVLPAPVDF
The experiment is described as follows: Fluorescence Cell-Free Homogeneous Dose Retest to Identify Inhibitors of RecA-Intein Splicing Activity. [Related pubchem assays (depositor defined):AID2097, AID2223, AID489010, AID492950]. Format: functional.

Experiment [20] can be described thus: HepG2 cell cytotoxicity, dose response, cytotoxicity control, ATP luminescence, cherry-pick, activator set 2 (AID 1053143). The format is functional, cell-based.
Experiment [21] is described as follows: T. cruzi growth inhibition in host cells, dose response, cell-based, plate reader, dry powder, set 2 (AID 652275). The format is functional.

Active and inactive are the calls of the source. Where only a bound is given, the exact number is not on record here.

Regarding `Oc1ccc(/C=N/CCc2ccccc2)cc1`, the EC50 (usually the concentration that produces a half-maximal response) in “cells [1]” was > 29.9 µM (inactive). Further, the IC50 (commonly the point on the concentration scale where inhibition reaches its midpoint) in “cells [2]” is > 29.9 µM (inactive).

For `Cc1ccc(-c2nc(-c3ccncc3)no2)cc1C`, the AC50 (commonly the concentration giving half of the maximal activity seen) in [3] was 25.8 µM (active); in experiment [4] it was > 52 µM (inactive); in [6], 17.8 µM (active). Moreover, the EC50 in [5] was > 67.5 µM (inactive).

In the case of `CC(O)(c1ccc(F)c(F)c1)c1nc(-c2cccc(C(F)(F)F)c2)cs1` (centres undefined), the IC50 in [7] was 7.59 µM (active); in experiment [8], > 69.5 µM (inactive).

As for `Cc1ccc(N/N=C(\C#N)C(=N)N2CCCCCC2)cc1`, the EC50 in experiment [5] is > 67.5 µM (inactive).

For the compound `O=C(Nc1ccc(NC(=O)c2ccco2)nc1)c1ccco1`, the values for the AC50 in experiment [3], in experiment [6] and in experiment [9] were 8.62 µM (active), 6.67 µM (active) and > 52 µM (inactive), respectively.

Take `CC(=O)c1sc(NC(=O)c2cc(-c3ccccc3)nn2-c2ccccc2)nc1C`: the AC50 in the experiment with HeLa is > 52 µM (inactive).

Turning to `Cc1ccc(-c2cc(-c3ccc(C)cc3)[n+](-c3ccc(C(=O)[O-])cc3)c(-c3ccc(C)cc3)c2)cc1`, the EC50 was > 120 µM (not active) in experiment [10]; 8.62 µM (inconclusive) in experiment [12]; 63.5 µM (active) in [13]; 2.76 µM (active) with BJ [14]; > 150 µM (not active) with Streptococcus; > 120 µM (not active) in experiment [15]. Moreover, the EC50 in the experiment with BJ [16] is 13.6 µM (active); in [17], 12.6 µM (active); on Streptokinase A, > 150 µM (not active); with BJ [19], 14.9 µM (inconclusive); on Protein RecA, 40.5 µM (active). The AC50 in the experiment on INS1 is 6.34 µM (active); in [11] it was 38.2 µM (active). Also, in experiment [18], the IC50 is 1.86 µM (active).

As for `COC(=O)c1c(NC(C)=O)sc(C(=O)Nc2ccccc2F)c1C`, in experiment [20], the AC50 was 26 µM (active).

On to `CN(C)C(=O)c1cccc(-c2ccc([C@H]3[C@H](CO)N4CCCCN(Cc5cccnc5)C[C@@H]34)cc2)c1`, for which the AC50 in experiment [21] was 0.481 µM (active).

These data come from ChEMBL document CHEMBL1201862, “PubChem BioAssay data set” (2004).
